Test results taken from patent US12466821B2 (Novartis AG, priority 2018, dated 2025).
Where two headings read alike, the source gives them in different places.

Legend:
[1] = test system: Luciferase-encoding HCMV, AD169 strain; assay: CMV Luciferase assay (cellular herpesvirus replication); type: cell-based
Outline: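 Neonatal human dermal fibroblasts were pretreated 1 h with compound (final 0.0159–50 μM or 0.00318–10 μM, 0.5% DMSO), then infected at MOI 1 with AD169 carrying pp28-promoter luciferase. After 72 h at 37 °C, Renilla-Glo luminescence normalized to no-virus and virus-only controls; EC50 by 4-parameter logistic model.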

[2] = molecular target: human CMV DNA polymerase UL54 (Human cytomegalovirus (strain AD169) (HHV-5) (Human herpesvirus 5), UniProt P08546); assay: CMV polymerase biochemical assay (molecular beacon-based)
Outline: (§1)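 Readout was beacon fluorescence (ex 480, em 535 nm), used to derive IC50. Each dNTP was at 1.25 uM, with 200 nM primer and 100 nM beacon, after a 30-min RT inhibitor preincubation. Enzyme was 625 pM for HSV UL30 (20 min RT reaction) or 100 pM for CMV UL54 (60 min RT), both sf9-expressed MBP fusions, in pH 7.5 Tris buffer with MgCl2.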

[3] = molecular target: human HSV DNA polymerase UL30 (Human herpesvirus 1 (strain 17) (HHV-1) (Human herpes simplex virus 1), UniProt P04293); assay: HSV polymerase biochemical assay (molecular beacon-based)
Outline: as §1

[4] = Human betaherpesvirus 5, AD169, read-out: CMV-Luc Cellular EC50
[5] = read-out: CMV-Luc Cellular EC50

Row | Structure (SMILES) | EC50 [1, 4] [nM] | IC50 [2] [nM] | IC50 [3] [nM] | EC50 [1, 5] [nM]
1 | N#Cc1ccc(CNC(=O)c2ccc3n(c2=O)CCN(CC2(S(=O)(=O)C4(F)CC4)CC2)C3=O)cc1F [Example 77-2] | 57.7 | 1.9 | 77.2 | 
2 | O=C(NCc1ccc(Cl)cc1)c1ccc2n(c1=O)CCN(CC1(S(=O)(=O)C3CCC3)CC1)C2=O [Example 78, N-(4-chlorobenzyl)-2-((1-(cyclobutylsulfonyl)cyclopropyl)methyl)-1,6-dioxo-2,3,4,6-tetrahydro-1H-pyrido[1,2-a]pyrazine-7-carboxamide] | 15.7 | 1 | 30 | 
3 | N#Cc1ccc(CNC(=O)c2ccc3n(c2=O)CCN(CC2(S(=O)(=O)C4CCC4)CC2)C3=O)cc1 [Example 79-1] | 33.7 | 1.3 | 33.4 | 
4 | N#Cc1ccc(CNC(=O)c2ccc3n(c2=O)CCN(CC2(S(=O)(=O)C4CCC4)CC2)C3=O)cc1F [Example 79-2] | 34.3 | 2 | 65.4 | 
5 | O=C(NCc1ccc(Cl)cc1)c1ccc2n(c1=O)CCN(CC1(S(=O)(=O)C3CCNC3)CC1)C2=O (stereo not drawn) [Example 80-1, N-(4-chlorobenzyl)-1,6-dioxo-2-((1-(pyrrolidin-3-ylsulfonyl)cyclopropyl)methyl)-2,3,4,6-tetrahydro-1H-pyrido[1,2-a]pyrazine-7-carboxamide] | 216 | 3.4 | 97.6 | 
6 | CN1CCC(S(=O)(=O)C2(CN3CCn4c(ccc(C(=O)NCc5ccc(Cl)cc5)c4=O)C3=O)CC2)C1 (stereo not drawn) [Example 80-2, N-(4-chlorobenzyl)-2-((1-((1-methylpyrrolidin-3-yl)sulfonyl)cyclopropyl)methyl)-1,6-dioxo-2,3,4,6-tetrahydro-1H-pyrido[1,2-a]pyrazine-7-carboxamide] | 247 | 9.7 | 177 | 
7 | N#Cc1ccc(CNC(=O)c2ccc3n(c2=O)CCN(CC2(S(=O)(=O)C4CCNC4)CC2)C3=O)cc1F (stereo not drawn) [Example 81-1] | 1070 | 3.8 | 152 | 
8 | CN1CCC(S(=O)(=O)C2(CN3CCn4c(ccc(C(=O)NCc5ccc(C#N)c(F)c5)c4=O)C3=O)CC2)C1 (stereo not drawn) [Example 81-2] | 486 | 11.3 | 204 | 
9 | N#Cc1ccc(CNC(=O)c2ccc3n(c2=O)CCN(CC2(S(=O)(=O)C4CCNC4)CC2)C3=O)cc1 (stereo not drawn) [Example 81-3] | 1190 | 7 | 216 | 
10 | CN1CCC(S(=O)(=O)C2(CN3CCn4c(ccc(C(=O)NCc5ccc(C#N)cc5)c4=O)C3=O)CC2)C1 (stereo not drawn) [Example 81-4] | 1080 | 23.3 | 474 | 
11 | N#Cc1ccc(CNC(=O)c2ccc3n(c2=O)CCN(CC2CCCS2(=O)=O)C3=O)cc1F (stereo not drawn) [Example 82, N-(4-cyano-3-fluorobenzyl)-2-((1,1-dioxidotetrahydrothiophen-2-yl)methyl)-1,6-dioxo-2,3,4,6-tetrahydro-1H-pyrido[1,2-a]pyrazine-7-carboxamide] | 10000 | 1090 | 20900 | 
12 | N#Cc1ccc(CNC(=O)c2ccc3n(c2=O)CCN(CC2(S(=O)(=O)C4CC(F)(F)C4)CC2)C3=O)cc1 [Example 83, N-(4-cyanobenzyl)-2-((1-((3,3-difluorocyclobutyl)sulfonyl)cyclopropyl)methyl)-1,6-dioxo-2,3,4,6-tetrahydro-1H-pyrido[1,2-a]pyrazine-7-carboxamide] | 146 | 4.4 | 101 | 
13 | N#Cc1ccc(CNC(=O)c2ccc3n(c2=O)CCN(CC2(S(=O)(=O)N4CC(F)(F)C4)CC2)C3=O)cc1 [Example 84-1, N-(4-cyanobenzyl)-2-((1-((3,3-difluoroazetidin-1-yl)sulfonyl)cyclopropyl)methyl)-1,6-dioxo-2,3,4,6-tetrahydro-1H-pyrido[1,2-a]pyrazine-7-carboxamide] | 69.6 | 3.9 | 102 | 
14 | N#Cc1ccc(CNC(=O)c2ccc3n(c2=O)CCN(CC2(S(=O)(=O)N4CC(F)(F)C4)CC2)C3=O)cc1F [Example 84-2] | 54.8 | 2.8 | 80.6 | 
15 | O=C(NCc1ccc(Cl)cc1)c1ccc2n(c1=O)CCN(CC1(S(=O)(=O)N3CC(F)(F)C3)CC1)C2=O [Example 84-3] | 31 | 1.4 | 52.6 | 
16 | Cc1cc(C(=O)NCc2ccc(C#N)cc2)c(=O)n2c1C(=O)N(CC1(S(C)(=O)=O)CC1)CC2 [Example 85, N-(4-cyanobenzyl)-9-methyl-2-((1-(methylsulfonyl)cyclopropyl)methyl)-1,6-dioxo-2,3,4,6-tetrahydro-111-pyrido[1,2-a]pyrazine-7-carboxamide] |  | 4.7 | 102 | 177

Row | Structure (SMILES) | EC50 [1, 4] [nM] | IC50 [2] [nM] | IC50 [3] [nM] | EC50 [1, 5] [nM]
17 | Cc1cc(C(=O)NCc2ccc(F)cc2)c(=O)n2c1C(=O)N(CC1(S(C)(=O)=O)CC1)CC2 [Example 86-1] | 1520 | 11.2 | 287 | 
18 | Cc1cc(C(=O)NCc2ccc(C#N)c(F)c2)c(=O)n2c1C(=O)N(CC1(S(C)(=O)=O)CC1)CC2 [Example 86-2] | 226 | 4.6 | 276 | 
19 | Cc1cc(C(=O)NCc2ccc(Cl)cc2)c(=O)n2c1C(=O)N(CC1(S(C)(=O)=O)CC1)CC2 [Example 86-3] |  | 1.8 | 45.3 | 34.6
20 | O=C(NCc1ccc(Cl)cc1)c1ccc2n(c1=O)CCN(CC1(S(=O)(=O)N3CCC3)CC1)C2=O [Example 87, 2-((1-(azetidin-1-ylsulfonyl)cyclopropyl)methyl)-N-(4-chlorobenzyl)-1,6-dioxo-2,3,4,6-tetrahydro-1H-pyrido[1,2-a]pyrazine-7-carboxamide] | 25.7 | 1.2 | 35.1 | 
21 | N#Cc1ccc(CNC(=O)c2ccc3n(c2=O)CCN(CC2(S(=O)(=O)N4CCC4)CC2)C3=O)cc1F [Example 88-1, 2-((1-(azetidin-1-ylsulfonyl)cyclopropyl)methyl)-N-(4-cyano-3-fluorobenzyl)-1,6-dioxo-2,3,4,6-tetrahydro-1H-pyrido[1,2-a]pyrazine-7-carboxamide] | 24.2 | 2 | 65.1 | 
22 | N#Cc1ccc(CNC(=O)c2ccc3n(c2=O)CCN(CC2(S(=O)(=O)N4CCC4)CC2)C3=O)cc1 [Example 88-2] | 39.5 | 3.2 | 73.5 | 
23 | O=C(NCc1ccc(Cl)cc1)c1ccc2n(c1=O)CCN(CC1(N3CCOC3=O)CC1)C2=O [Example 89-1, N-(4-chlorobenzyl)-1,6-dioxo-2-((1-(2-oxooxazolidin-3-yl)cyclopropyl)methyl)-2,3,4,6-tetrahydro-1H-pyrido[1,2-a]pyrazine-7-carboxamide] | 4900 | 79.3 | 1260 | 
24 | N#Cc1ccc(CNC(=O)c2ccc3n(c2=O)CCN(CC2(N4CCOC4=O)CC2)C3=O)cc1 [Example 89-2] | 3330 | 174 | 2520 | 
25 | CN(C)S(=O)(=O)C1(CN2CCn3c(ccc(C(=O)NCc4ccc(Cl)cc4)c3=O)C2=O)CC1 [Example 90-1, N-(4-chlorobenzyl)-2-((1-(N,N-dimethylsulfamoyl)cyclopropyl)methyl)-1,6-dioxo-2,3,4,6-tetrahydro-1H-pyrido[1,2-a]pyrazine-7-carboxamide] | 13.4 | 0.4 | 12.3 | 
26 | CC1CN(CCN(C)S(C)(=O)=O)C(=O)c2ccc(C(=O)NCc3ccc(Cl)cc3)c(=O)n21 (stereo not drawn) [Example 91, N-(4-chlorobenzyl)-4-methyl-2-(2-(N-methylmethylsulfonamido)ethyl)-1,6-dioxo-2,3,4,6-tetrahydro-1H-pyrido[1,2-a]pyrazine-7-carboxamide] | 2480 | 186 | 2250 | 
27 | CC1Cn2c(ccc(C(=O)NCc3ccc(Cl)cc3)c2=O)C(=O)N1CCN(C)S(C)(=O)=O (stereo not drawn) [Example 92, N-(4-chlorobenzyl)-3-methyl-2-(2-(N-methylmethylsulfonamido)ethyl)-1,6-dioxo-2,3,4,6-tetrahydro-1H-pyrido[1,2-a]pyrazine-7-carboxamide] | 2980 | 312 | 1340 | 
28 | Cc1cc(C(=O)NCc2ccc(C#N)cc2)c(=O)n2c1C(=O)N(CC1(S(=O)(=O)C3CC3)CC1)CC2 [Example 93-1, N-(4-cyanobenzyl)-2-((1-(cyclopropylsulfonyl)cyclopropyl)methyl)-9-methyl-1,6-dioxo-2,3,4,6-tetrahydro-1H-pyrido[1,2-a]pyrazine-7-carboxamide] | 38.6 | 1.1 | 46.7 | 
29 | Cc1cc(C(=O)NCc2ccc(Cl)cc2)c(=O)n2c1C(=O)N(CC1(S(=O)(=O)C3CC3)CC1)CC2 [Example 93-2] | 15.3 | 0.8 | 28.6 | 
30 | Cc1cc(C(=O)NCc2ccc(C#N)c(F)c2)c(=O)n2c1C(=O)N(CC1(S(=O)(=O)C3CC3)CC1)CC2 [Example 93-3] | 21 | 5.9 | 28.3 | 
31 | CC1(S(=O)(=O)C2(CN3CCn4c(ccc(C(=O)NCc5ccc(C#N)cc5)c4=O)C3=O)CC2)CC1 [Example 94-1] | 13.3 | 0.6 | 33.2 | 
32 | CC1(S(=O)(=O)C2(CN3CCn4c(ccc(C(=O)NCc5ccc(C#N)c(F)c5)c4=O)C3=O)CC2)CC1 [Example 94-2] | 7.9 | 0.3 | 25.3 | 
